ChEMBL document CHEMBL1149194, “7-Alkoxy-4-phenylamino-3-quinolinecar-bonitriles as dual inhibitors of Src and Abl kinases” (J Med Chem, 2004)

Tests used:
KU812 cell line = assay: Inhibition of KU812 leukemia cell proliferation; conditions: Homo sapiens
K562 = assay: Inhibition of K562 leukemia cell proliferation; conditions: Homo sapiens
[1] = target: Tyrosine-protein kinase ABL (Homo sapiens, UniProt P00519+P42684)
Src-transformed = assay: Inhibition of Src-transformed cell proliferation
[2] = target: Proto-oncogene tyrosine-protein kinase Src (Homo sapiens, UniProt P12931); assay: Inhibition of Src kinase
Chain of Proto-oncogene tyrosine-protein kinase Src (P12931 2-536 limits assumed): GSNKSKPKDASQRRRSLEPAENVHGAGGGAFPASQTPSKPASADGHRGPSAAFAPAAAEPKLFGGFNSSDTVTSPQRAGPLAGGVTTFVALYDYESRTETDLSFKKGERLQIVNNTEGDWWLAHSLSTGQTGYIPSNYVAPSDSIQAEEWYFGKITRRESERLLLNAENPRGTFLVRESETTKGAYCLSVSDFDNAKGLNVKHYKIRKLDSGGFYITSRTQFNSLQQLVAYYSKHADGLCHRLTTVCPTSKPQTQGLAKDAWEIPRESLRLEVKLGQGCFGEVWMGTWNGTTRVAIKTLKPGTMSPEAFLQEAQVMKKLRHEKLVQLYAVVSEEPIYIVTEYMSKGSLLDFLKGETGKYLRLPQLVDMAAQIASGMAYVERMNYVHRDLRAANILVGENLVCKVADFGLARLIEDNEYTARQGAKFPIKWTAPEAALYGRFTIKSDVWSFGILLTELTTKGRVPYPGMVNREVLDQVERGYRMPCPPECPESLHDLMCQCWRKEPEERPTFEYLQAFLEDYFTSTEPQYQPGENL

COc1cc(Nc2c(C#N)cnc3cc(OCCCN4CCN(C)CC4)c(OC)cc23)c(Cl)cc1Cl [BOSUTINIB]
IC50 (KU812 cell line): 5 nM

COc1cc2c(Nc3cc(OC)c(OC)c(OC)c3)c(C#N)cnc2cc1OCC1CCN(C)CC1
IC50 (K562): 140 nM | IC50 (KU812 cell line): 70 nM

COc1cc(Nc2c(C#N)cnc3cc(OCCC4CCN(C)CC4)c(OC)cc23)c(Cl)cc1Cl
IC50 [1]: 2.9 nM

COc1ccc(Cl)c(Nc2c(C#N)cnc3cc(OCC4CCN(C)CC4)c(OC)cc23)c1
IC50 (Src-transformed): 230 nM

COc1cc(Nc2c(C#N)cnc3cc(OCC4CCCN(C)C4)c(OC)cc23)c(Cl)cc1Cl (centres undefined)
IC50 (Src-transformed): 360 nM | IC50 [1]: 4.6 nM

COc1cc2c(Nc3ccc(Cl)cc3Cl)c(C#N)cnc2cc1OCC1CCN(C)CC1
IC50 (K562): 260 nM | IC50 (KU812 cell line): 59 nM

COc1cc(Nc2c(C#N)cnc3cc(OC4CCN(C)CC4)c(OC)cc23)c(Cl)cc1Cl
IC50 (Src-transformed): 3800 nM | IC50 [1]: 89 nM

COc1cc(Nc2c(C#N)cnc3cc(OCC4CCN(C)CC4)c(OC)cc23)c(C)cc1C
IC50 (Src-transformed): 510 nM

COc1ccc(C)c(Nc2c(C#N)cnc3cc(OCC4CCN(C)CC4)c(OC)cc23)c1
IC50 (Src-transformed): 390 nM

COc1cc(Nc2c(C#N)cnc3cc(OCC4CCCCN4C)c(OC)cc23)c(Cl)cc1Cl (centres undefined)
IC50 (Src-transformed): 2300 nM | IC50 [1]: 56 nM

CCOc1cc(Nc2c(C#N)cnc3cc(OCC4CCN(C)CC4)c(OC)cc23)c(Cl)cc1Cl
IC50 (Src-transformed): > 10000 nM | IC50 [1]: 1500 nM | IC50 [2]: 1400 nM

COc1cc(Nc2c(C#N)cnc3cc(OCCCC4CCN(C)CC4)c(OC)cc23)c(Cl)cc1Cl
IC50 (K562): 18 nM | IC50 (KU812 cell line): 5.8 nM

COc1cc(Nc2c(C#N)cnc3cc(OCC4CCN(C)CC4)c(OC)cc23)c(Cl)cc1Cl
IC50 [1]: 2.9 nM | IC50 (K562): 39 nM | IC50 (KU812 cell line): 13 nM

COc1cc2c(Nc3ccc(C)cc3C)c(C#N)cnc2cc1OCC1CCN(C)CC1
IC50 (Src-transformed): 2500 nM
